The results in this text go back to publication PMC11339798, “Dual inhibitors of Pseudomonas aeruginosa virulence factors LecA and LasB” (Chemical Science, 2024).

For data set [1], the target named is T1, LecA (Pseudomonas aeruginosa, UniProt Q05097).
T1 construct: made in house; host or cells: E. coli (plasmid pET25-pail)
The data set can be described thus: Competitive binding assay for LecA based on fluorescence polarization. More on the design: species or system P. aeruginosa. How it is done: The four thiols 17, 18, 24 and 25 as well as three disulfides 26a, 26b and 27 were then evaluated for their activity against LecA using a competitive binding assay based on fluorescence polarization (Fig. 4B). […]
Expression and purification of LasB and LecA
LecA was expressed recombinantly using E. coli pET25-pail, whereas LasB was isolated from P. aeruginosa PA14 culture supernatant as described previously. 1,2
LecA labeling with fluorescein was performed in analogy to Sommer et al. 3 and Beshr et al.4 To this end fluorescein isothiocyanate (FITC) was freshly dissolved in carbonate-bicarbonate buffer with pH of 9.3 at a concentration of 3 mg mL-1. Subsequently, 66 µL of this FITC solution was combined with 1.4 mL of LecA at a concentration of 60 µM in carbonate-bicarbonate buffer, pH 9.3. The resulting mixture was then incubated at 25 °C with shaking at 500 rpm for 1 hour. Then, extensive washing with PBS/Ca2+ in a 5 kDa molecular weight cutoff centrifugal concentrator was performed to remove excess dye and buffer the labelled protein. […]
Competitive binding assay for LecA
The procedure for the fluorescence polarization-based competitive binding assay for LecA was performed as reported by Joachim et al. with modifications. 1 The assay was performed in TBS/Ca2+ buffer (20 mM Tris, 137 mM NaCl, 2.6 mM KCl at pH 7.4 supplemented with 1 mM CaCl 2 and contained 5% DMSO). The final protein concentration in the assay was 5 µM for LecA. Fluorescence intensities were recorded on a PheraStar FS plate reader (BMG Labtech GmbH, Germany) and polarization was calculated using MARS Data Analysis (BMG Labtech).
IC50 values were obtained from a four-parameter curve-fitting procedure. Averages and standard deviations were calculated from at least three independent experiments of technical
On the technique in general: Polarisation of emitted light reports the rotation of a fluorescent probe.

The next data set is described as follows: Kinetic solubility. Format: physicochemical. Particulars: aqueous buffer, kinetic from dmso stock; 10 mm PBS with 2% DMSO at 37 °C.
The target in data set [2] is T1, LecA. The data set is described as follows: Surface plasmon resonance direct LecA binding assay (immobilized LecA). More on the design: species or system P. aeruginosa. The text has this:
Therefore, we measured the LecA affinity of thiol derivatives 17, 18, 24 and 25 and disulfides 26a, 26b and 27 using surface plasmon resonance (SPR) with LecA covalently immobilized on a sensor chip via amide coupling (Fig. 5 and Table 1). […] Thiols 17, 18, 24 and 25 reached equilibrium binding within 60 s of interaction with immobilized LecA, followed by their dissociation with moderate off-rates. […] Due to the very small off-rates for 26a, 26b and 27, these values have been calculated based on the response at […] of the injected compound and monitoring their dissociation for 30 min (Fig. S2 ^†). The observed very tight binding to immobilized LecA required optimization of the protein surface regeneration procedure. Effective conditions were identified as one injection of 50 mm isopropyl β-D-thiogalactoside in the running buffer, followed by one injection of 20 mm EDTA disodium salt in water. The regenerated chip surface was controlled using an injection of 1 to ensure that the activity of LecA was maintained.
Surface plasmon resonance direct LecA binding assay
SPR experiments were performed on a Reichert 2-channel SPR SR7500DC (Reichert Technologies Life Sciences, Buffalo, NY, USA) at 25 °C. For LecA immobilization, the surface of a HC1000M sensor chip (XanTec bioanalytics GmbH, Düsseldorf, Germany) was preequilibrated with borate buffer (1 M NaCl, 0.1 M sodium borate pH 9.0), followed by activation of the polycarboxylate hydrogel with 0.2 M N-hydroxysuccinimide (NHS) and 0.4 M 1-ethyl-3-(3-dimethylaminopropyl)carbodiimide hydrochloride (EDC‧HCl) in MilliQ water in both channels for 240 s (flow rate 10 μL/min) until the binding response reached 1200 RU.
Then, LecA (100 μg/mL) in 10 mM sodium acetate pH 3.6 was injected on the activated chip surface of one channel (injection time 420 s, flow rate 10 μL/min) and 6000 RU of LecA were immobilized. Unreacted NHS esters in both channels were blocked with 1 M ethanolamine hydrochloride in MilliQ water pH 8.5 (injection time 360 s, flow rate 10 μL/min).
Test compound stock solutions were prepared in DMSO (20 mM stocks for monovalent LecA inhibitors, 20 µM stocks for divalent LecA inhibitors) and were subsequently diluted in 10 mM phosphate buffer (pH 7.4, 2.7 mM KCl, 137 mM NaCl, 100 μM CaCl2) to obtain solutions with […]
Monovalent inhibitors 17, 18, 24 and 25 were injected for 120 s (flow rate 50 μL/min) at concentrations ranging from 0.39–100 µM. Divalent inhibitors 26a, 26b and 27 were injected for 120 s (flow rate 50 μL/min) at concentrations 50–350 nM. The chip surface was regenerated after each inhibitor injection by one injection of 50 mM IPTG in running buffer (10 mM phosphate buffer, pH 7.4, 2.7 mM KCl, 137 mM NaCl, 100 μM CaCl2, 2% DMSO) followed by one injection 20 mM EDTA disodium salt in MilliQ water, and then followed by three injections of the running buffer (injection time 120 s, flow rate 50 μL/min). 100 µM pNP-Gal (1) in running buffer was injected before each analyte to monitor and ensure chip regeneration and […]
Affinity/equilibrium analysis was performed for 1 on the same chip. A stock solution of 1 (10 mM in PBS/CaCl2 buffer) was prepared, then diluted to the required concentrations in running buffer and injected at 1.56–400 µM (injection time 60 s, flow rate 50 μL/min) without regeneration steps. Data analysis was performed using TraceDrawer software (Ridgeview Instruments) using a 1:1 binding model to fit the experimental data. Spikes at the end of the injections were removed in TraceDrawer during the data analysis.
(In general: Surface plasmon resonance follows binding to a sensor surface in real time, without labels.)

T1 sequence (Q05097 whole entry): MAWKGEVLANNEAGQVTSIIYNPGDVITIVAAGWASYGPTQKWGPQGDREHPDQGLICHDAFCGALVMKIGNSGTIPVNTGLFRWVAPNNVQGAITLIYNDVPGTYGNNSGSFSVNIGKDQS

For orientation: IC50 means the point on the concentration scale where inhibition reaches its midpoint. Read a low IC50 as greater potency. In general, solubility (kinetic) refers to solubility judged after dilution from a stock solution rather than from solid. For orientation: Kd means the equilibrium constant for the complex coming apart. Read a low Kd as tighter binding. The compound `CC(C)CC(SSC(CC(C)C)C(=O)Nc1ccc(S[C@@H]2O[C@H](CO)[C@H](O)[C@H](O)[C@H]2O)cc1)C(=O)Nc1ccc(S[C@@H]2O[C@H](CO)[C@H](O)[C@H](O)[C@H]2O)cc1` (some centres unmarked) [Compound 27] had an IC50 at LecA [1] of 5.7 µM. In “Kinetic solubility”, this compound had a kinetic solubility of more than 600 µM. Besides, at LecA [2], the affinity, expressed as Kd, was 4.5 ± 0.4 nM. At LecA [2] (SPR, immobilized LecA), the k a is 5.2 ± 0.6 ×10^4 M^−1 s^−1 and the k d is listed as 2.2 ± 0.3 ×10^−4 s^−1.
